In the NIST ThermoML archive (doi:10.1021/acs.jced.5b00857):
Numbers after ± are expanded uncertainties.

Tests used:
[1] = Molar enthalpy of transition or fusion; settings: Crystal; DSC
[2] = Crystal; DTA

Molar enthalpy of transition or fusion [1]: 30.3 ± 1.9 kJ/mol
Normal melting temperature [2]: 118.70 ± 1.1 °C
Structure (SMILES): O=C1OC[C@H]2[C@@H]1N(Cc1ccccc1)C(=O)N2Cc1ccccc1
